Patent publication US20230285383A1, “TREATMENT OF SKIN DISEASES” (Ichilov Tech Ltd., priority 2020, published 2023)

What was measured:
SAMD9 [1] = experiment: SAMD9 expression by qRT-PCR in HeLa cells; format: cell-based, human
Protocol: (§1) HeLa cells were cultured in DMEM 4.5 g/l glucose medium containing 10% FCS, 1% L-glutamine and 1% penicillin and streptomycin (Biological Industries) and grown at 37° C. and 5% CO2.
(§2) Of note, when cells were incubated with CPT and CPT-11, they were grown in the appropriate medium with 0.1% FCS only.
(§3) RNA was extracted from cell cultures using an RNA extraction kit (Roche Diagnostics, Mahheim, Germany). cDNA was synthesized from 500 ng of total RNA using the Verso cDNA kit (Thermo Fisher Scientific, Waltham, Mass., USA) or qScript kit (Quanta Biosciences, Gaithersburg, Md., USA). cDNA PCR amplification was carried out using the Fast SYBR Green Master Mix in a StepOnePlus™ Real-Time PCR System (Applied Biosystems, Foster City, Calif., USA) with gene-specific intron-crossing oligonucleotide pairs listed in Table 1 (below). For quantification, standard curves were obtained using serially diluted cDNA amplified in the same qRT-PCR run. The melting temperature (Tm) of the amplified products was measured to confirm the specificity of the reaction conditions. […] Each sample was analyzed in triplicate. mRNA expression level for target gene was normalized to GAPDH. The results are based the amount of target, normalized to an endogenous reference (IACTB) and relative to a calibrator, as calculated by 2-ΔΔCT. […] The expression levels of target genes were expressed as mRNA relative units. […]

SAMD9 [2] = experiment: SAMD9 expression by qRT-PCR in TERC-transformed fibroblasts; format: cell-based, human; details: 5 μM, 24 hours, relative to DMSO
Protocol: TERC-transformed fibroblasts were transformed with a pBABE-H2AGFP construct containing the human telomerase gene were cultured High Glucose DMEM, 10% FCS, L-glutamine and Pen-Strep (all cell culture regents from Biological Industries, Israel). Medium was changed every 2-3 days. Cells were used at passage 2-3.
as §2
as §3, with “GAPDH.” for “GAPDH. The results are based the amount of target, normalized to an endogenous reference (IACTB) and relative to a calibrator, as calculated by 2-ΔΔCT.”

SAMD9 [3] = experiment: SAMD9 expression by qRT-PCR in primary fibroblasts; format: cell-based, human
Protocol: Primary fibroblasts were isolated from human adult skin and were grown in High Glucose DMEM, 10% Fetal Bovine Serum, L-glutamine and Pen-Strep. Medium was changed every 2-3 days. Cells were used at passage 2-3.
as §2
RNA was extracted from cell cultures using an RNA extraction kit (Roche Diagnostics, Mahheim, Germany). cDNA was synthesized from 500 ng of total RNA using the Verso cDNA kit (Thermo Fisher Scientific, Waltham, Mass., USA) or qScript kit (Quanta Biosciences, Gaithersburg, Md., USA). cDNA PCR amplification was carried out using the Fast SYBR Green Master Mix in a StepOnePlus™ Real-Time PCR System (Applied Biosystems, Foster City, Calif., USA) with gene-specific intron-crossing oligonucleotide pairs listed in Table 1 (below). For quantification, standard curves were obtained using serially diluted cDNA amplified in the same qRT-PCR run. The melting temperature (Tm) of the amplified products was measured to confirm the specificity of the reaction conditions. […] Each sample was analyzed in triplicate. mRNA expression level for target gene was normalized to GAPDH. The results are based the amount of target, normalized to an endogenous reference (IACTB) and relative to a calibrator, as calculated by 2-ΔΔCT. […]
SAMD9 expression was measured via qRT-PCR, in triplicates. […]

EGR1 = EGR1 expression by qRT-PCR in Hela cells; format: cell-based, human
Protocol: as §1, §2, §3

[4] = system: imiquimod-induced psoriasiform dermatitis; experiment: Imiquimod-induced psoriasiform dermatitis in mice; format: in vivo, Balb/c mice; details: 7.5 mg/Kg i.p., biopsies at day 6, vs vehicle
Protocol: Balb/c mice (Harlan Laboratories Ltd, Jerusalem, Israel), 9 weeks of age, were maintained in a pathogen-free animal facility. Animal care and research protocols had been approved by the institutional committee for animal use. Imiquimod 5% (Perrigo, Israel) was topically applied to the mice on their upper backs.
(§4) Formaldehyde-fixed 5-μm paraffin-embedded sections from skin biopsies were deparaffinized and treated with 3% H2O2 in methanol for 15 minutes at room temperature, warmed in a microwave oven in citrate buffer in a pressure cooker for 25 minutes, and stained with a monoclonal anti-Ki67 antibody (Thermo Scientific) for 1 hour at room temperature. Following 3 washings (10 minutes each) with phosphate-buffered saline (PBS), the antibodies were imaged using the ABC technique (Zymed Laboratories, South San Francisco, Calif.) and the slides were counterstained with hematoxylin.
Epidermal thickness was defined as the distance between the granular layer and the basement membrane and was measured at 10 randomly selected locations for each biopsy using NIS-Elements BR 3.2 software (Nikon, NY USA). An image was taken and was manually measured in the software by selecting an upper and lower border, as defined above. The distance was measured in microns. […]

human psoriatic skin = experiment: Chimeric mice carrying human psoriatic skin; format: in vivo, SCID mice; details: i.p., 10 days; CPT 3 mg/kg five times a week; CPT-11 30 or 50 mg/kg three times a week
Description: (§5) Chimeric mice carrying human psoriatic skin were generated using SCID mice, 2-3 months of age. Animals were maintained in a pathogen-free animal facility. A psoriasis-like phenotype was induced in normal human skin grafted onto the mice by intradermal injection of natural killer/T cells derived from psoriatic patients as previously described [Gilhar A et al. J Invest Dermatol (2011) 131: 118-124].
as §4
Epidermal thickness was defined as the distance between the granular layer and the basement membrane and was measured at 10 randomly selected locations for each biopsy using NIS-Elements BR 3.2 software (Nikon, NY USA). An image was taken and was manually measured in the software by selecting an upper and lower border, as defined above. The distance was measured in microns.
To assess the potential therapeutic role of the compounds of some embodiments of the invention, the two compounds were administered systemically (i.p) to chimeric mice carrying human psoriatic skin.
as §5, with “In short,” for “Chimeric mice carrying human psoriatic skin were generated using”, “age,” for “age. Animals”
Two weeks after natural killer/T-cell injection (6 weeks after human skin grafting), mice were injected i.p. five times a week. Five groups of mice were treated as follows: one group of mice was injected five times a week with the vehicle (10% DMSO in […] was used as a vehicle control); a second group of mice was injected five times a week CPT (3 mg/kg); a third group of mice was injected three times a week CPT-11 (50 mg/kg); a fourth group of mice was injected three times a week CPT-11 (30 mg/kg); and a fifth group of mice, was treated with dexamethasone (DEX) cream applied 5 times a week on the graft, as positive control (DEX was expected to attenuate inflammation in this model). Each group included six mice, and the treatment was performed for a total of 10 days. The grafts were harvested from the five groups of mice, paraffin-embedded, stained for hematoxylin and eosin (H&E), analyzed and scored for the average improvement of the clinical and histological psoriasiform phenotype.

HeLa cells = experiment: RNA sequence analysis of HeLa cells treated with CPT; format: cell-based, human; details: 10 μM, 48 hours
Protocol: FIG. 10A presents RNA-seq analysis of HeLa cells treated with CPT. HeLa cells were treated with 10 μM CPT or DMSO for 48 hours (three independent experiments). Total RNA was extracted and sent to RNA-seq. Volcano plot represents the number of genes that were differentially expressed. […] P-value for enrichment for genes belongs to a known psoriasis related pathogenic pathways (taken from IPA database) was calculated using hypergeometric distribution (using a background of 24190 genes).
HeLa cells were treated with 10 μM CPT or DMSO for 48 hours (three independent experiments). Total RNA was extracted and sent to RNA-sequencing.
The obtained data is presented in FIGS. 10A-B. FIG. 10A presents a volcano plot that show the number of statistically significant differential gene (DE) as response to CPT treatment. […] In addition, calculation of p-value for enrichment for genes belongs to a known psoriasis related pathogenic pathways (taken from IPA database) using hypergeometric distribution (using a background of 24190 genes). The table in FIG. 10B summarizes the number of genes in each group, the number of differentially expressed genes, the overlap, and the adjusted p-value (after correcting for multiple testing).

[5] = Hela cells, 1-10 μM for 48 hours, or 10 μM for 48 and 72 hours

Structure (SMILES)	SAMD9 expression (SAMD9 [1]; HeLa cells, 5 μM, 24 hours, relative to DMSO)	SAMD9 expression (SAMD9 [2])	SAMD9 expression, dose dependence (SAMD9 [3]; 1 μM, 2 μM, 5 μM and 10 μM)	SAMD9 expression (SAMD9 [3]; 5 μM, 24 hours, relative to DMSO)	EGR1 expression (EGR1; 10 μM, 24, 48 and 72 hours, result sentence prints primary fibroblast cells, method Hela cells)	epidermal thickness [4]	index of proliferation (Ki67) [4]	clinical and histological psoriasiform phenotype (human psoriatic skin)	epidermal thickness (human psoriatic skin)	inflammation index (human psoriatic skin)	keratinocyte proliferation (Ki67) (human psoriatic skin)	expression of genes of psoriasis related pathways (HeLa cells; enrichment by hypergeometric distribution)	number of genes downregulated (HeLa cells; vs DMSO, FDR<0.01)	number of genes upregulated (HeLa cells; vs DMSO, FDR<0.01)	SAMD9 expression (SAMD9 [1]; [5])	EGR1 expression (EGR1; [5])
CC[C@@]1(O)C(=O)OCc2c1cc1n(c2=O)Cc2cc3ccccc3nc2-1 [CPT, Camptothecin]	significant induction of SAMD9 expression	significant induction of SAMD9 expression	up-regulate SAMD9 expression in a dose dependent manner	significant induction of SAMD9 expression	significantly down-regulated EGR1 expression	decrease in epidermal thickness	decrease	significant clinical and histological attenuation of the psoriasiform phenotype	significant decrease	significant decrease	significant decrease	significant turnover in expression of many genes belongs to psoriasis related pathways	1192	1664	–	–
CCc1c2c(nc3ccc(OC(=O)N4CCC(N5CCCCC5)CC4)cc13)-c1cc3c(c(=O)n1C2)COC(=O)[C@]3(O)CC [CPT-11, Irinotecan]	–	–	–	–	–	–	–	significant clinical and histological attenuation of the psoriasiform phenotype	significant decrease	significant decrease	significant decrease	–	–	–	substantial induction of SAMD9 expression	substantial down-regulation of EGR1
